Measured values: ChEMBL document CHEMBL5137015, “Design, synthesis, and evaluation of a novel series of mono-indolylbenzoquinones derivatives for the potential treatment of breast cancer” (Eur J Med Chem, 2022)
Activity calls are given as the source filed them. The calls are words filed in the database; no cut-off is given here.

Columns and labels:
[1] = Toxicity in Balb/c mouse implanted with mouse 4T1 cells assessed as effect on body weight at 50 mg/kg administered intratumorally every four days for 14 days in the presence of liquid cyanoacrylate; type: organism-based; details: in vivo, other, 336 h, route it(Intratumoral), time 14 day
[2] = test system: MDA-MB-231; assay: Induction of ROS production in human MDA-MB-231 cells assessed as increase in fluorescence intensity at 1 uM incubated for 24 hrs by DCFH-DA staining based fluorescence analysis; type: functional, cell-based
[3] = Toxicity in Balb/c mouse implanted with mouse 4T1 cells assessed as effect on body weight at 50 mg/kg administered intratumorally every four days for 14 days; type: organism-based; details: in vivo, other, 336 h, route it(Intratumoral), time 14 day
[4] = Toxicity in Balb/c mouse xenografted with mouse 4T1 cells assessed as kidney lesions at 200 mg/kg administered topically over the tumor surface every two days for 14 days in the presence of cyanoacrylate by H&E staining based histopathological analysis; type: organism-based; details: in vivo, topical_or_ocular, 336 h, route top, time 14 day
[5] = Toxicity in Balb/c mouse implanted with mouse 4T1 cells assessed as kidney lesions at 50 mg/kg, ip administered every two days for 14 days by H&E staining based histopathological analysis; type: organism-based; details: in vivo, 336 h, time 14 day
[6] = Drug metabolism in Balb/c mouse liver implanted with mouse 4T1 cells assessed as dechlorination of parent compound causing metabolite formation by LC-MS analysis; type: ADME, tissue-based
[7] = Drug metabolism in Balb/c mouse kidney implanted with mouse 4T1 cells assessed as dechlorination of parent compound causing metabolite formation by LC-MS analysis; type: ADME, tissue-based
[8] = test system: MDA-MB-231; assay: Induction of apoptosis in human MDA-MB-231 cells assessed as decrease in Bcl-2 expression at 0.5 to 3 times of IC50 concentration by Western blot analysis; type: functional, cell-based
[9] = Toxicity in Balb/c mouse xenografted with mouse 4T1 cells assessed as lung lesions at 200 mg/kg administered topically over the tumor surface every two days for 14 days in the presence of cyanoacrylate by H&E staining based histopathological analysis; type: organism-based; details: in vivo, topical_or_ocular, 336 h, route top, time 14 day
[10] = test system: 4T1; assay: Antitumor activity against mouse 4T1 cells implanted in Balb/c mouse assessed as apoptotic rate of dissected tumor cell at 50 mg/kg administered intratumorally every four days for 14 days in the presence of liquid cyanoacrylate by flow cytometric analysis (reference value: 64.83%); type: functional; details: route it(Intratumoral), time 14 day
[11] = test system: MDA-MB-231; assay: Induction of apoptosis in human MDA-MB-231 cells assessed as increase in Bcl-2 protein expression at 1 uM incubated for 24 hrs by Western blot analysis; type: functional, cell-based
[12] = test system: MDA-MB-231; assay: Induction of apoptosis in human MDA-MB-231 cells assessed as decrease in Bcl-2/Bax ratio at 0.5 to 3 times of IC50 concentration by Western blot analysis; type: functional, cell-based
[13] = test system: MDA-MB-231; assay: Antiproliferative activity against human MDA-MB-231 cells assessed as inhibition of cell growth by MTT assay; type: functional, cell-based
[14] = Drug metabolism in Balb/c mouse spleen implanted with mouse 4T1 cells assessed as 2-methyl hydroxylation of parent compound causing metabolite formation by LC-MS analysis; type: ADME, tissue-based
[15] = test system: MDA-MB-231; assay: Induction of apoptosis in human MDA-MB-231 cells assessed as increase in Bax expression at 0.5 to 3 times of IC50 concentration by Western blot analysis; type: functional, cell-based
[16] = Acute toxicity in mouse assessed as death rate ratio at 238 mg/kg, ip measured over 14 days; type: organism-based; details: in vivo, 336 h, time 14 day

With `Cc1[nH]c2ccccc2c1C1=C(Cl)C(=O)C(Cl)=C(N2CCOCC2)C1=O` the Activity [1] was “Non-Toxic”, the Activity [2] was “Active” and the Activity [3] was “Non-Toxic”. For the same molecule, the Activity [4] was “Non-Toxic”, the Activity [5] was “Non-Toxic” and the Drug metabolism [6] was “Metabolite_Detected”. For the same molecule, the Drug metabolism [7] was “Metabolite_Detected”, the Activity [8] was “Active” and the Activity [9] was “Non-Toxic”. For the same molecule, the Activity [10] was 76.24%, the Activity [11] was “Active” and the Activity [12] was “Active”. For the same molecule, the IC50 [13] was 0.07 µM, the Drug metabolism [14] was “Metabolite_Detected” and the Activity [15] was “Active”. For the same molecule, the Ratio [16] was 0.17.
